pIC50: −log10 of the molar value. Read-outs that look alike come from different tables or passages of the source.
What was measured:
[1] = test system: A549 cell lines (lung cancer cell lines); assay: Oxygen Consumption Rate (OCR) of cells, corrected for cell viability (Cyquant); format: cell-based; details: Homo sapiens; A549 cells, 24 h drug treatment, OCR value reflecting cell viability; read-out: OCR IC50
Procedure: The compounds synthesized by the methods disclosed in the Examples of the present invention have been measured on oxygen consumption rate and extracellular oxidation by the methods disclosed in the Test Examples below.
3×10^3 cells from A549 cell lines (purchased from ATCC-American Type Culture Collection), which are lung cancer cell lines, were placed on XF96 cell culture plates using RPMI1640 medium, and cultured at 37° C. in a 5% CO2 condition for 16 hours or more for attachment.
After 16 hours, the cells were treated with the drug at six different concentrations between 0 μM and 20 μM. After 24 hours, the existing medium was removed, and XF assay medium (15 mM D-Glucose, 15 mM sodium pyruvate, 4 mM L-Glutamine, pH 7.4) was added. The cells were retreated with the drug, and additionally cultured in Prep station at 37° C. in a non-CO2 condition for 1 hour. During the one-hour culture in the Prep station, a sensor cartridge was placed and calibrated for 20 minutes, and a plate with cells was placed to analyze the OCR. After the analysis was completed, XF96 plate was measured for cell viability using Cyquant assay, which measures the amount of intracellular DNA, in the following method. XF assay medium and the drug were removed, and the cells were placed in a cryogenic refrigerator (−80° C.) for at least 4 hours to be frozen. After the plate was made to be at room temperature, a solution where a lysis buffer and fluorescent GR dye were mixed was placed by 200 μL per well. After 20-minute reaction at room temperature, […] was measured between […] to calculate cell viability. A measured value of a well untreated with the drug was converted to 100% by reflecting cell viability to the OCR value. Concentration of a drug which inhibits the OCR value reflecting cell viability by 50% was calculated.

[2] = test system: SK-MEL-28 cells; assay: Inhibitory effect of cancer cell proliferation, MTT; format: cell-based; details: Homo sapiens
Procedure: The compounds prepared in the above Examples were evaluated for the inhibitory effect of cancer cell proliferation according to the method described in the following Test Example.
SK-MEL-28 cells derived from human melanoma were used, and the concentration (cell growth inhibitory concentration, IC50) at which cell growth was inhibited to 50% was measured using MTT reagent (3-(4,5-dimethylthiazole-2-yl)-2,5-[…] bromide) to confirm the inhibitory effect of cancer cell proliferation of the drugs synthesized in Examples 1 to 84.
First, SK-MEL-28 cells were cultured in 96-well plates at a cell number of about 1,250 in RPMI-1640 medium containing 11.1 mM glucose and 10% calf blood serum or 0.75 mM glucose and 10% calf blood serum, and were cultured for 16 hours. […] After treatment of the compound, MTT was added to the culture medium to confirm living cells and further cultured for 2 hours. The resulting formazane crystal was dissolved using dimethyl sulfoxide, and the absorbance of the solution was measured at 555 nm. After culturing for 72 hours, the number of viable cells in the well plate treated with the compounds synthesized in the Examples relative to the number of cells cultured in the well plate without treatment of the compounds was expressed as cell viability (%) according to each treatment concentration. By using this, a cell viability curve graph was prepared, and the inhibitory effect of cancer cell proliferation was confirmed by calculating the concentration of the compound whose growth was inhibited to 50% (IC50).

[3] = SK-MEL-28, 0.75 mM glucose, 72 hours, MTT, read-out: SK-MEL-28 0.75 mM glucose Cell viability (IC50 μM)
[4] = SK-MEL-28, 11.1 mM glucose, 72 hours, MTT, read-out: SK-MEL-28 11.1 mM glucose Cell viability (IC50 μM)

| SMILES | pIC50 [1] | IC50 [2, 3] | IC50 [2, 4] | IC50 ([2]; SK-MEL-28, 72 h, read-out: SK-MEL-28 0.75 mM glucose Cell viability (IC50 μM)) | IC50 ([2]; SK-MEL-28, 72 h, read-out: SK-MEL-28 11.1 mM glucose Cell viability (IC50 μM)) |
| --- | --- | --- | --- | --- | --- |
| COc1cc(N)cc[n+]1Cc1ccccc1 [Example 45, 4-Amino-1-benzyl-2-methoxypyridinium chloride] | 5.30 | 16.6 µM | 81.4 µM |  |  |
| Nc1cc[n+](CC(=O)c2ccccc2)cc1 [Example 26, 4-Amino-1-(2-oxo-2-phenylethyl)pyridinium bromide] | 5.62 | 102 µM | 194 µM |  |  |
| Nc1cc[n+](CC2CC2)cc1 [Example 31, 4-Amino-1-(cyclopropylmethyl)pyridinium chloride] | 5.37 | 56.2 µM | 418 µM |  |  |
| Nc1cc[n+](Cc2ccc(Cl)c(Cl)c2)c(F)c1 [Example 35, 4-Amino-1-(3,4-dichlorobenzyl)-2-fluoropyridinium chloride] | 6.30 | 5 µM | 7.5 µM |  |  |
| COc1ccc2cc3[n+](cc2c1OC)CCc1cc2c(cc1-3)OCO2 [Berberine, reference compound] | 5.34 |  |  |  |  |
| Nc1cc[n+](Cc2cccs2)cc1 [Example 77, 4-Amino-1-(thiophen-2-ylmethyl)pyridinium chloride] | 5.62 | 15.8 µM | 106 µM |  |  |
| c1c[n+](CC2CC2)ccc1N1CCCC1 [Example 56, 1-(Cyclopropylmethyl)-4-(pyrrolidin-1-yl)pyridinium chloride] | 6.10 | 4.4 µM | 118 µM |  |  |
| Cc1c[n+](Cc2ccccc2)ccc1N [Example 43, 4-Amino-3-methyl-1-benzylpyridinium chloride] | 6.05 | 14.4 µM | 45.5 µM |  |  |
| CC(C)(C)Nc1cc[n+](Cc2ccccc2)cc1 [Example 69, 1-benzyl-4-(tert-butylamino)pyridinium chloride] |  | 14.6 µM | 132 µM |  |  |
| c1ccc(C[n+]2ccc(NC3COC3)cc2)cc1 [Example 67, 1-Benzyl-4-(oxetan-3-ylamino)pyridinium chloride] |  | 131 µM | 545 µM |  |  |
| c1ccc(C[n+]2ccc(N3CCOCC3)cc2)cc1 [Example 50, 1-Benzyl-4-morpholinopyridinium chloride] | 6.00 | 13.9 µM | 208 µM |  |  |
| Cc1c[n+](CCc2ccccc2)ccc1N [Example 44, 4-Amino-3-methyl-1-phenethylpyridinium chloride] | 5.96 | 15.2 µM | 105 µM |  |  |
| Nc1cc[n+](CC2CCC2)c(F)c1 [Example 48, 4-Amino-1-(cyclobutylmethyl)-2-fluoropyridinium bromide] | 6.10 | 19.9 µM | 46.3 µM |  |  |
| Nc1cc[n+](Cc2ccccc2)cc1 [Example 20, 4-Amino-1-benzylpyridinium chloride] | 5.74 | 14.7 µM | 143 µM |  |  |
| Nc1cc[n+](CCCc2ccccc2)c(F)c1 [Example 24, 4-Amino-2-fluoro-1-(3-phenylpropyl)pyridinium chloride] | 6.10 | 4.4 µM | 16.8 µM |  |  |
| Nc1cc[n+](CC2CC2)cn1 [Example 73, 4-Amino-1-(cyclopropylmethyl)pyrimidin-1-ium chloride] |  | 169 µM | 358 µM |  |  |
| Nc1cc[n+](CCc2ccccc2)c(C2CC2)c1 [Example 15, 4-amino-2-cyclopropyl-1-phenethylpyridinium iodide] | 5.64 | 6.8 µM | 47 µM |  |  |
| CNc1cc[n+](Cc2ccc(Cl)c(Cl)c2)cc1 [Example 37, 1-(3,4-Dichlorobenzyl)-4-(methylamino)pyridinium chloride] | 5.96 | 1.5 µM | 10.8 µM |  |  |
| Nc1cc[n+](CC2CCCCC2)cc1 [Example 46, 4-Amino-1-(cyclohexylmethyl)pyridinium bromide] | 6.10 | 7.9 µM | 49.6 µM |  |  |

| SMILES | pIC50 [1] | IC50 [2, 3] | IC50 [2, 4] | IC50 ([2]; SK-MEL-28, 72 h, read-out: SK-MEL-28 0.75 mM glucose Cell viability (IC50 μM)) | IC50 ([2]; SK-MEL-28, 72 h, read-out: SK-MEL-28 11.1 mM glucose Cell viability (IC50 μM)) |
| --- | --- | --- | --- | --- | --- |
| c1coc(C[n+]2ccc(N3CCCC3)cc2)c1 [Example 78, 1-(Furan-2-ylmethyl)-4-(pyrrolidin-1-yl)pyridinium chloride] | 5.68 | 3.55 µM | 104 µM |  |  |
| Nc1cc[n+](Cc2ccc(Cl)c(Cl)c2)cc1 [Example 36, 4-Amino-1-(3,4-dichlorobenzyl)pyridinium chloride] | 6.15 | 2.8 µM | 13.1 µM |  |  |
| Nc1cc[n+](CCC2CCCCC2)c(F)c1 [Example 28, 4-Amino-1-(2-cyclohexylethyl)-2-fluoropyridinium bromide] | 6.40 | 0.7 µM | 3.8 µM |  |  |
| CC(C)(C)CNc1cc[n+](Cc2ccccc2)cc1 [Example 61, 1-Benzyl-4-(neopentylamino)pyridinium chloride] | 4.80 | 1.5 µM |  |  |  |
| c1ccc(CC[n+]2ccsc2)cc1 [Example 13, 3-Phenethylthiazol-3-ium iodide] | 4.78 | 129 µM | 320 µM |  |  |
| CN(C)c1cc[n+](CCc2ccccc2)cc1 [Example 17, 4-(Dimethylamino)-1-phenethylpyridinium chloride] | 5.38 | 6.9 µM | 75.4 µM |  |  |
| Nc1cc[n+](Cc2ccc[se]2)cn1 [Example 74, 4-Amino-1-(selenophen-2-ylmethyl)pyrimidin-1-ium chloride] |  |  |  | 74.4 µM | 243 µM |
| Nc1cc[n+](Cc2ccc(F)cc2)cc1 [Example 49, 4-Amino-1-(4-fluorobenzyl)pyridinium bromide] | 5.62 | 10.3 µM | 54.5 µM |  |  |
| c1ccc(CC[n+]2cccc3c2CCCC3)cc1 [Example 22, 1-Phenethyl-5,6,7,8-tetrahydroquinolinium chloride] | 5.10 | 18.5 µM | 193 µM |  |  |
| c1c[n+](CC2CCCCC2)ccc1N1CCCC1 [Example 57, 1-(Cyclohexylmethyl)-4-(pyrrolidin-1-yl)pyridinium bromide] | 6.30 | 1.1 µM | 23 µM |  |  |
| CNc1cc[n+](CC2CC2)cc1 [Example 41, 1-(Cyclopropylmethyl)-4-(methylamino)pyridinium chloride] | 5.57 | 35.1 µM | 234 µM |  |  |
| c1c[n+](CC2CC2)ccc1N1CCOCC1 [Example 52, 4-Morpholino-1-(cyclopropylmethyl)pyridinium chloride] | 6.10 | 40 µM | 367 µM |  |  |
| c1ccc(CC[n+]2ccc(N3CCCC3)cc2)cc1 [Example 55, 1-Phenethyl-4-(pyrrolidin-1-yl)pyridinium chloride] | 5.51 | 0.1 µM | 45.9 µM |  |  |
| Nc1cc[n+](CCc2ccccc2Cl)c(N)c1 [Example 12, 2,4-Diamino-1-(2-chlorophenethyl)pyridinium bromide] | 6.10 | 12.8 µM | 55.5 µM |  |  |
| c1c[n+](CC2CC2)ccc1N1CCC1 [Example 70, 4-(Azetidin-1-yl)-1-(cyclopropylmethyl)pyridinium chloride] | 5.47 | 9.4 µM | 49.5 µM |  |  |
| Nc1cc[n+](CC2CCC2)cc1 [Example 47, 4-Amino-1-(cyclobutylmethyl)pyridinium bromide] | 5.30 | 20.3 µM | 167 µM |  |  |
| FC1(F)CCN(c2cc[n+](Cc3ccccc3)cc2)CC1 [Example 65, 1-benzyl-4-(4,4-difluoropiperidin-1-yl)pyridinium chloride] |  | 28.6 µM | 215 µM |  |  |
| Nc1scc[n+]1CCc1ccccc1 [Example 14, 2-Amino-3-phenethylthiazol-3-ium iodide] |  | 154 µM | 277 µM |  |  |

Source: US20170305861A1, “HETEROARYL COMPOUNDS COMPRISING NITROGEN AND USE THEREOF” (ImmunoMet Therapeutics, Inc, priority 2016, published 2017)
